Experimental data from the CheMixHub ionic liquid set.

Assay: xn = mol fraction of the nth substance listed

CC(=O)[O-].CC[NH3+] + O
298.15 K, 101 kPa
Conditions | electrical conductivity [S/m]
x2 = 0.6519 | 1.55
x2 = 0.8802 | 2.91
x2 = 0.9004 | 3.01
x2 = 0.91 | 3.05
x2 = 0.93 | 3.06

CCCCCCCCCCCCCCCC[n+]1ccccc1.O=C([O-])c1ccccc1O + O
electrical conductivity [S/m], 101 kPa
Conditions | 293.15 K | 298.15 K | 303.15 K | 308.15 K | 313.15 K
x1 = 7.2e-07 | 0.00046 | 0.000513 | 0.000569 | 0.000627 | 0.000668
x1 = 1.44e-06 | 0.000708 | 0.000794 | 0.000883 | 0.000973 | 0.00122
x1 = 1.98e-06 | 0.000945 | 0.00105 | 0.00117 | 0.00129 | –
x1 = 2.34e-06 | 0.00114 | 0.00128 | 0.00144 | 0.00159 | 0.00177
x1 = 2.88e-06 | 0.00129 | 0.00148 | 0.00168 | 0.00186 | –
x1 = 3.24e-06 | – | – | – | – | 0.0023
x1 = 3.42e-06 | 0.00142 | 0.00163 | 0.00186 | 0.0021 | –
x1 = 3.96e-06 | 0.00156 | 0.00178 | 0.00202 | 0.0023 | 0.00268
x1 = 4.32e-06 | 0.00167 | 0.00191 | 0.00217 | 0.00247 | –
x1 = 4.69e-06 | – | – | 0.00232 | 0.00263 | 0.003
x1 = 4.87e-06 | 0.00181 | 0.00205 | – | – | –
x1 = 5.23e-06 | 0.00187 | 0.00217 | 0.00247 | 0.0028 | –
x1 = 5.41e-06 | – | – | – | – | 0.00324
x1 = 5.59e-06 | 0.00204 | 0.00231 | 0.00261 | 0.00294 | –
x1 = 5.95e-06 | 0.00212 | 0.00242 | 0.00273 | 0.00309 | 0.00348
x1 = 6.31e-06 | 0.00224 | 0.00254 | 0.00285 | 0.00321 | –
x1 = 6.49e-06 | 0.00231 | 0.00263 | 0.00296 | 0.00333 | 0.00375
x1 = 6.85e-06 | 0.00243 | 0.00274 | 0.00307 | 0.00345 | –
x1 = 7.03e-06 | – | – | – | – | 0.00396
x1 = 7.21e-06 | 0.00251 | 0.00283 | 0.00319 | 0.00358 | –
x1 = 7.39e-06 | – | – | – | – | 0.00412
x1 = 7.75e-06 | – | – | – | – | 0.00431
x1 = 8.11e-06 | – | – | – | – | 0.00447
x1 = 8.65e-06 | – | – | – | – | 0.00464

CCCCCCCCCCCCCC[P+](CCCCCC)(CCCCCC)CCCCCC.O=S(=O)([N-]S(=O)(=O)C(F)(F)F)C(F)(F)F + O
Conditions | viscosity [mPa·s]
328.15 K, 100 kPa, x2 = 0.088 | 65.75

CCCCCCCCCCCCCCn1cc[n+](C)c1.[Br-] + O
electrical conductivity [S/m], 101 kPa, frequency 0.001 MHz
Conditions | 298.15 K | 308.15 K | 318.15 K
x1 = 4.74e-06 | 0.00249 | 0.00401 | 0.00409
x1 = 9.35e-06 | 0.00459 | 0.00671 | 0.00708
x1 = 1.386e-05 | 0.0065 | 0.0093 | 0.0101
x1 = 1.825e-05 | 0.00834 | 0.011 | 0.0127
x1 = 2.252e-05 | 0.0101 | 0.0135 | 0.0154
x1 = 2.669e-05 | 0.0119 | 0.0154 | 0.0182
x1 = 3.076e-05 | 0.0136 | 0.0173 | 0.0206
x1 = 3.474e-05 | 0.0152 | 0.0199 | 0.0232
x1 = 3.862e-05 | 0.0167 | 0.0218 | 0.0253
x1 = 4.24e-05 | 0.0183 | 0.0238 | 0.028
x1 = 4.613e-05 | 0.0192 | 0.0252 | 0.0303
x1 = 4.973e-05 | 0.0199 | 0.0265 | 0.0322
x1 = 5.334e-05 | 0.0204 | 0.0273 | 0.0335
x1 = 5.676e-05 | 0.0209 | 0.0282 | 0.0345
x1 = 6e-05 | 0.0213 | 0.0288 | 0.0356
x1 = 6.343e-05 | 0.0217 | 0.0294 | 0.0365
x1 = 6.667e-05 | 0.0221 | 0.03 | 0.0372
x1 = 6.973e-05 | 0.0225 | 0.0305 | 0.0377
x1 = 7.28e-05 | 0.0229 | 0.0311 | 0.0383
x1 = 7.586e-05 | 0.0233 | 0.0316 | 0.0389
x1 = 7.892e-05 | 0.0236 | 0.0321 | 0.0396
x1 = 8.18e-05 | 0.024 | 0.0326 | 0.0408
x1 = 8.451e-05 | 0.0243 | 0.0329 | 0.0414
x1 = 8.739e-05 | 0.0246 | 0.0333 | 0.0418

CCCCCCCC[N+](C)(CCCCCCCC)CCCCCCCC.O=S(=O)([N-]S(=O)(=O)C(F)(F)F)C(F)(F)F + O
100 kPa, x1 = 0.8468
Conditions | viscosity [mPa·s]
313.15 K | 239
343.15 K | 65

CCCCCCCC[n+]1ccn(C)c1.F[P-](F)(F)(F)(F)F + O
101 kPa, x2 = 0.212
Conditions | electrical conductivity [S/m] | viscosity [mPa·s]
293.15 K | – | 500
295.15 K | 0.12 | –

CCCCCCCC[n+]1ccn(C)c1.O=C([O-])[C@@H]1CCCN1 + O
298.15 K, 100 kPa, frequency 0.001 MHz
Conditions | electrical conductivity [S/m]
x1 = 0.001745 | 0.149
x1 = 0.002409 | 0.209
x1 = 0.002947 | 0.264
x1 = 0.003555 | 0.308
x1 = 0.004199 | 0.369
x1 = 0.004895 | 0.425
x1 = 0.005502 | 0.483
x1 = 0.006143 | 0.531
x1 = 0.006819 | 0.572
x1 = 0.0076 | 0.608
x1 = 0.008416 | 0.648
x1 = 0.009336 | 0.688
x1 = 0.01018 | 0.725
x1 = 0.01137 | 0.783
x1 = 0.01233 | 0.819
x1 = 0.01355 | 0.879

CCCCCCCCn1cc[n+](C)c1.F[B-](F)(F)F + O
100 kPa
Conditions | viscosity [mPa·s]
298.15 K, x2 = 0.9487 | 5.25
308 K, x1 = 0.5482 | 34.91
